According to publication PMC7435600, “Flavonoids and Terpenoids with PTP-1B Inhibitory Properties from the Infusion of Salvia amarissima Ortega” (Molecules, 2020):

Experiments:
[1] = biological target: T1, protein tyrosine phosphatase 1B (PTP-1B) (Homo sapiens, UniProt P18031); experiment: Protein tyrosine phosphatase 1B inhibition assay (pNPP); assay type: biochemical; settings: for IC50: hPTP-1B, pNPP substrate, three independent determinations, read-out: PTP-1B inhibitory activity expressed as IC50 (converted)
T1 construct: made in house
T1 sequence (P18031 1-435): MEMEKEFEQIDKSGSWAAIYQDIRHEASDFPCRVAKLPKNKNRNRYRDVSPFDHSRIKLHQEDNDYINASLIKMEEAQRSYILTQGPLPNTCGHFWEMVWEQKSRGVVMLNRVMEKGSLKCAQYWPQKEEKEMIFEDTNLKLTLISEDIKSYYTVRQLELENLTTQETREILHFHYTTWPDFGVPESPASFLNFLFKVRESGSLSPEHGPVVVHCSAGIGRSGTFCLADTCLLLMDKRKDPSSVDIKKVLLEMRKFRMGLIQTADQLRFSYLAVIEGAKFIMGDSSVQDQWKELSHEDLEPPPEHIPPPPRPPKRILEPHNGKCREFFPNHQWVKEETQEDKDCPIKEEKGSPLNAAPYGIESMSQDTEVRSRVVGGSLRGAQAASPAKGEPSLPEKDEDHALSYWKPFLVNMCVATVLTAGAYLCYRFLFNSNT
Protocol: The expression and purification of hPTP-1B was performed as previously described. […] Aliquots of 0–10 μL of testing materials (triplicated) were incubated for 5 min with 20 μL of enzyme stock solution in Tris-HCl (22 nM). After incubation, 10 μL of p-nitrophenylphosphate (pNPP; 5 mM) was added and further incubated for 15 min at 25 °C; then, the absorbance was determined (λmax 415 nm). For all samples, the inhibitory activity was determined as a percentage in comparison to the blank (Tris-HCl) according to the following equation:(1) % PTP1B=(1−A415t/A415C)×100 where % PTP-1B is the percentage of inhibition, A415t is the corrected absorbance of the extracts, fraction, or compounds under testing (A415end − A415initial) and A415C is the absorbance of the blank (A415end blank − A415initial blank).

mammal α-glucosidases = test system: mammal α-glucosidases; design: method as in PMID 28422509; settings: cited from earlier work
[2] = design: method as in doi:10.17129/botsci.2187; settings: cited from earlier work
PTP-1B = test system: PTP-1B; design: method as in PMID 22940448; settings: other studies; cited from earlier work

Row | IC50 [1] [µM] | SMILES | further results
1 | 62 | COc1cc2oc(-c3ccc(O)c(O)c3)cc(=O)c2c(O)c1O [Compound 7, pedalitin] | inhibition of α-glycosidases in vivo (mammal α-glucosidases): inhibited; antinociceptive properties [2]: demonstrated
2 | 189 | COc1cc(-c2cc(=O)c3c(O)c(O)c(OC)cc3o2)ccc1O [Compound 2, 5,6,4′-trihydroxy-7,3′-dimethoxyflavone] | 
3 | 280 | CC1CCC23COC(=O)C2=CC(OC2OC(CO)C(O)C(O)C2O)CC3C1(C)CCc1ccoc1 (stereo not drawn) [Compound 1, amarisolide] | inhibitory activity against mammal α-glucosidases (mammal α-glucosidases; in vitro and in vivo): showed inhibitory activity; inhibition of α-glycosidases in vivo (mammal α-glucosidases): inhibited; antinociceptive properties [2]: demonstrated
4 | 137 | O=C(/C=C/c1ccc(O)c(O)c1)O[C@H](Cc1ccc(O)c(O)c1)C(=O)O [Compound 5, rosmarinic acid] | 
5 | 514 | C[C@@H]1CC[C@@]23COC(=O)C2=C[C@@H](O[C@@H]2O[C@H](CO)[C@@H](O)[C@H](O)[C@H]2O)C[C@@H]3[C@@]1(C)CCC1=CC(=O)OC1O (stereo partly drawn) [Compound 8a,b, (2S,5S,8R,9R,10R,14R,S)-2-(O-β-D-glucopyranosyl)-neo-clerodan-14-hydroxy-3, 13-diene-14,15;18,19-diolide] | 
6 |  | C[C@H]1[C@H](C)CC[C@]2(C(=O)O)CC[C@]3(C)C(=CC[C@@H]4[C@@]5(C)CC[C@H](O)C(C)(C)[C@@H]5CC[C@]43C)[C@H]12 [UA, ursolic acid, reference compound] | times more active than compound 7 experimentally ([1]; ratio of PTP-1B IC50, UA vs compound 7): 2.2 times; IC50 (PTP-1B): […]

Row | SMILES | IC50 [1] [µM] | further results
7 | O=c1c(O[C@@H]2O[C@H](CO)[C@@H](O)[C@H](O)[C@H]2O)c(-c2ccc(O)c(O)c2)oc2cc(O)cc(O)c12 [Compound 6, isoquercitrin] | 260 | 
8 | O=c1cc(-c2ccc(O)c(O)c2)oc2cc(O)c(O)c(O)c12 [Compound 3, 6-hydroxyluteolin] | 80.1 | 
9 | C[C@@H]1O[C@@H](OC[C@H]2O[C@@H](Oc3c(-c4ccc(O)c(O)c4)oc4cc(O)cc(O)c4c3=O)[C@H](O)[C@@H](O)[C@@H]2O)[C@H](O)[C@H](O)[C@H]1O [Compound 4, rutin] | 323 | 
